{
  "source": "patent US20240041830A1",
  "about": "“CIRCULATING BIOMARKERS OF RESPONSE TO PD-1/PD-L1 BLOCKADE AND GSK-3 INHIBITION” (Brown University, priority 2022, published 2024)",
  "key": {"HT29": {"tested_on": "HT29", "assay": "CellTiter Glo cell viability", "format": "cell-based", "details": "Homo sapiens, HT-29, treatment up to 50 μM for seventy-two hours", "description": "(§1) Measurement of cell viability. Cells were seeded at a density of 3×10^3 cells per well in a 96-well plate (Greiner Bio-One, Monroe, NC, USA). Cell viability was assessed using the CellTiter Glo assay (Promega, Madison, WI, USA). Cells were mixed with 25 μL of CellTiter-Glo reagents in 100 μL of culture volume, and bioluminescence imaging was measured using the Xenogen IVIS imager (Caliper Life Sciences, Waltham, MA). The percent of cell viability was determined by normalizing the luminescence signal to control wells. Dose-response curves were generated, and the half-maximal inhibitory concentration (IC50) was calculated using Graph-Pad Prism (RRID: SCR_002798) version 9.2.0. For IC50 generation, concentrations were log-transformed, and data were then normalized to control, and a log (inhibitor) versus response (three parameters) test was used. A panel of human colorectal cell lines was chosen to provide a varied mutational background (TP53, KRAS, BRAF, TRK, APC, PIK3CA). Cells were treated with elraglusib at doses up to 50 μM for seventy-two hours to determine IC10, IC30, IC50, and IC70. Cytokine, chemokine, and growth factor levels were analyzed in the tumor cell culture supernatants after treatment at IC10, IC30, IC50, and IC70 for forty-eight hours using a Luminex 200 multiplexing instrument. Co-culture experiments were conducted with GFP+ SW480 colorectal cancer cells and either NK-92 natural killer cells or TALL-104 T cells at various effector/target ratios in a 48-well plate, in the presence or absence of elraglusib. The inventors performed cell titer glo analysis to determine IC doses after treatment up to 50 μM for seventy-two hours. See TABLE below of IC50 values for the three cell lines."}, "HCT116": {"tested_on": "HCT116", "assay": "CellTiter Glo cell viability", "format": "cell-based", "details": "Homo sapiens, HCT-116, treatment up to 50 μM for seventy-two hours", "description": "as §1"}, "KM12C": {"tested_on": "KM12C", "assay": "CellTiter Glo cell viability", "format": "cell-based", "details": "Homo sapiens, treatment up to 50 μM for seventy-two hours", "description": "as §1"}, "NK-92": {"tested_on": "NK-92", "assay": "Luminex cytokine profiling of cell culture supernatant", "format": "cell-based, human", "description": "(§2) Collection of cell culture supernatants used in cytokine measurements. Cells were plated at 3.5×10^4 cells in a 48-well plate (Thermo Fisher Scientific, Waltham, MA, USA) in complete medium and incubated at 37° C. with 5% CO2. At twenty-four hours after plating, almost all the tumor cells were adherent to the bottom of the flask and the complete medium was replaced with the drug-containing medium. Subsequently, the culture supernatants were collected after forty-eight hours of incubation and were frozen at −80° C. until the measurement of cytokines was performed. On the day of analysis, samples were thawed and centrifuged to remove cellular debris.\n(§3) Human cytokine profiling. Human cell line culture supernatants were analyzed using an R&D systems Human Premixed Multi-Analyte Kit (R&D Systems, Inc., Minneapolis, MN, USA) and a Luminex 200 (RRID: SCR_018025) Instrument (LX200-XPON-RUO, Luminex Corporation, Austin, TX, USA) according to the manufacturer's instructions. Sample levels of TNF-α, 4-1BB/TNFRSF9/CD137, IL-8/CXCL8, Ferritin, IFN-β, IL-10, CCL2/JE/MCP-1, VEGF, CXCL13/BLC/BCA-1, IFN-γ, CCL20/MIP-3 α, CCL3/MIP-1 α, CCL22/MDC, CCL4/MIP-1 β, Fas Ligand/TNFSF6, IL-17/1L-17A, IL-2, BAFF/BLyS/TNFSF13B, GM-CSF, CXCLS/ENA-78, TRANCE/TNFSF11/RANK L, CXCL9/MIG, G-CSF, IFN-γ R1/CD119, VEGFR3/Flt-4, C-Reactive Protein/CRP, CXCL11/I-TAC, IL-21, CXCL14/BRAK, IL-6, Fas/TNFRSF6/CD95, TRAIL R3/TNFRSF10C, IL-4, CCL5/RANTES, PD-L1/137-H1, CCL7/MCP-3/MARC, Chitinase 3-like 1, CXCL10/IP-10/CRG-2, IL-1 μ/IL-1F2, IL-7, Prolactin, CCL8/MCP-2, TRAIL R2/TNFRSF10B, M-CSF, IL-15, Granzyme B, IFN-α, TREM-1, IL-12/1L-23 p40, TRAIL/TNFSF10, CCL11/Eotaxin, and 1L-18/1L-1F4. Quantitative analysis with 6 standards and a minimum of 50 counts per bead region was used with the Luminex to generate analyte values reported as picograms/milliliter (pg/mL). Sample concentrations less than the lower limit of detection for each particular analyte were recoded as the lower limit value divided by 10. Sample concentrations above the upper limit of detection for a particular analyte were recoded as the upper limit of detection.\n(§4) Saos-2 osteosarcoma and 93T449 liposarcoma cell lines were pretreated at IC50 with elraglusib. The cells were harvested for Western blot analysis after 48 hours of treatment. Both cancer cell lines as well as TALL-104 T-cells and NK-92 NK cells were treated with 0.5 μM elraglusib for twenty-four hours and harvested for Luminex cytokine profiling.\n(§5) Because the previously observed non-canonical NF-κB pathway activation enhances the expression of immune cell chemotactic chemokines and cytokines, the inventors determine how elraglusib treatment impacts the immune cell secretome. TALL-104 and NK-92 cells were treated with 1 μM elraglusib for forty-eight hours before cell culture supernatant was collected for cytokine profile analysis."}, "TALL-104": {"tested_on": "TALL-104", "assay": "Luminex cytokine profiling of cell culture supernatant", "format": "cell-based, human", "description": "as §2, §3, §4, §5"}, "MSS cell line CT-26": {"tested_on": "MSS cell line CT-26", "assay": "syngeneic murine colon carcinoma BALB/c model, survival and tumor response", "format": "in vivo, mouse", "experimental": "In vivo studies. […] Once tumor volume reached at least 100 mm^3, mice were randomly assigned to one of seven groups (12 mice/group): Control (isotype), elraglusib, elraglusib+Isotype, anti-PD-1, anti-PD-L1, elraglusib+anti-PD-1, and elraglusib+anti-PD-L1. All treatments were delivered by IP injection using the following dosing schedule: Isotype (70 mg/kg, twice a week), elraglusib (70 mg/kg, twice a week), anti-PD-1 (10 mg/kg, twice a week), anti-PD-L1 (10 mg/kg, twice a week). Treatment dosing was determined based on previous studies of elraglusib and anti-PD-1/anti-PD-L1. […] The treatment continued until mice developed signs of discomfort from excessive tumor growth. Mice were weighed once a week to monitor signs of drug toxicity. The length (L) and width (W) of the masses were measured three times per week with a digital caliper, and the tumor volume was calculated by applying the formula: 0.5LW2 Collection of whole blood and serum was performed by cardiac puncture and sent to Antech Diagnostics GLP (Morrisville, NC, USA) for blood cell count and chemistry tests, or in-house cytokine profiling. Tumors and organs were dissected and harvested for analysis by immunohistochemistry and flow cytometry.\nIn a syngeneic murine colon carcinoma BALB/c model using microsatellite stable cell line CT-26, the inventors compared isotype, elraglusib (70 mg/kg 2×/week), αPD-1 (10 mg/kg 2×/week), αPD-L1 (10 mg/kg 2×/week), elraglusib+αPD-1, and elraglusib+αPD-L1 treatment groups.\nThe inventors evaluated the potential for elraglusib to increase the efficacy of immune checkpoint blockade and utilized a syngeneic murine colon carcinoma BALB/c murine model using a MSS cell line CT-26 (FIG. 4A). Mice were randomly assigned to one of seven groups: isotype (N=12), elraglusib (N=12), elraglusib+isotype (N=12), anti-PD-1 (N=12), anti-PD-L1 (N=12), elraglusib+anti-PD-1 (N=12), and elraglusib+ anti-PD-L1 (N=12)."}},
  "data": [
    {"smiles": "Cn1cc(C2=C(c3coc4ccc(F)cc34)C(=O)NC2=O)c2cc3c(cc21)OCO3", "note": "[elraglusib]", "values": [
      {"measurement": "IC50", "setting": "HT29", "result": 0.41, "unit": "µM"},
      {"measurement": "IC50", "setting": "HCT116", "result": 0.37, "unit": "µM"},
      {"measurement": "IC50", "setting": "KM12C", "result": 0.2, "unit": "µM"},
      {"measurement": "IL-8 chemokine", "setting": "NK-92; 0.5 μM, twenty-four hours", "result": "increase"},
      {"measurement": "soluble TRAIL (TRAIL/TNFSF10)", "setting": "NK-92; 0.5 μM, twenty-four hours", "result": "increase"},
      {"measurement": "IFN-γ concentration", "setting": "NK-92; 1 μM, forty-eight hours", "result": "increases"},
      {"measurement": "TRAIL concentration", "setting": "NK-92; 1 μM, forty-eight hours", "result": "increases"},
      {"measurement": "secreted granzyme B concentration", "setting": "NK-92; 1 μM, forty-eight hours", "result": "decreases"},
      {"measurement": "IFN-γ in cell culture supernatants", "setting": "NK-92; twenty-four hours, effect smaller than in TALL-104", "result": "significant increase"},
      {"measurement": "CXCL11", "setting": "TALL-104; 0.5 μM, twenty-four hours", "result": "increase"},
      {"measurement": "IL-18", "setting": "TALL-104; 0.5 μM, twenty-four hours", "result": "increased level"},
      {"measurement": "IFN-γ concentration", "setting": "TALL-104; 1 μM, forty-eight hours", "result": "increases"},
      {"measurement": "TRAIL concentration", "setting": "TALL-104; 1 μM, forty-eight hours", "result": "increases"},
      {"measurement": "granzyme B concentration", "setting": "TALL-104; 1 μM, forty-eight hours", "result": "increases"},
      {"measurement": "IFN-γ in cell culture supernatants", "setting": "TALL-104; twenty-four hours", "result": "significant increase"},
      {"measurement": "survival compared to the control", "setting": "MSS cell line CT-26; N=12 per group", "result": "statistically significant improved survival"},
      {"measurement": "hazard ratio for death (HR)", "setting": "MSS cell line CT-26; compared to isotype control group", "result": 0.12},
      {"measurement": "median overall survival", "setting": "MSS cell line CT-26; elraglusib 70 mg/kg 2×/week, αPD-1/αPD-L1 10 mg/kg 2×/week, isotype control group 16 d", "result": 19, "unit": "days"}
    ]}
  ]
}
